Data: US20110053773A1, “METHODS OF IMPROVING NUTRITIONAL VALUE OF PLANTS” (UNIVERSITY OF TENNESSEE RESEARCH FOUNDATION, priority 2009, published 2011)

Experiments:
basil 'Genovese' = test: Content analysis of basil: protein, minerals (Example 4, Tables 10-11); type: in vivo; settings: 28 DA-A
How it was run: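 Plants received postemergence sprays of one insecticide, one fungicide, two PGRs or two safeners in the greenhouse. About 4 weeks later they were harvested, and replicates were pooled for laboratory content analysis. Injury was rated visually on a 0–100% scale.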

kale 'Red Russian' = test: Content analysis of kale: protein, amino acids, fiber, fatty acids, minerals (Example 4, Tables 12-14); type: in vivo; settings: 28 DA-A
Procedure: Greenhouse and laboratory studies were conducted to ascertain the tolerance and nutritional quality differences following postemergence applications of the insecticide chlorpyrifos, the fungicide chlorothalonil, the PGRs mepiquat-chloride and paclobutrazol, and the safeners napthalic anhydride and isoxadifen-ethyl on kale ‘Red Russian’ and basil ‘Genovese’. Visual injury was rated based on general phytotoxicity, chlorosis, and visual stunting and each measurement was based on a percent scale from 0 to 100 where 0 equals no visual response and 100 equals complete plant death. Kale and basil were both harvested approximately 4 weeks after treatments and plants were pooled over replicates for content analysis of crude protein, crude amino acid content, acid detergent fiber, neutral detergent fiber, total fatty acids, and/or key mineral content (including Na, Ca, P, Mg, K, Fe, Mn, Zn, and Cu). In addition, the amounts of key individual amino acids (aspartic acid, threonine, glutamic acid, proline, glycine, cysteine, valine, leucine, isoleucine, methionine, and lysine) and composite classifications of fatty acid (saturated fatty acids, monounsaturated fatty acids, polyunsaturated fatty acids) were also analyzed from these sub-samples for kale (Tables 10-14).

[1] = rates g ai/ha: chlroprifos 3370, chlorothalonil 7900, paclobutrazol 9.7, mepiquat-chloride 37, Isoxadifen 16, Napthalic anhydride 527, + NIS 0.25 % v/v
[2] = rates g ai/ha: chlropyrifos 1120, chlorothalonil 2630, paclobutrazol 3.23, mepiquat-chloride 12.3, Isoxadifen 8, Napthalic anhydride 264, + NIS 0.25 % v/v
[3] = first-listed rate g ai/ha: chlropyrifos ###, chlorothalonil ###, paclobutrazol 3.2, mepiquat-chloride 12, + NIS 0.3 % v/v
[4] = rates g ai/ha: chlropyrifos 1120, chlorothalonil 2630, paclobutrazol 3.23, mepiquat-chloride 12.3, + NIS 0.25 % v/v
[5] = rates g ai/ha: chlropyrifos 3370, chlorothalonil 7900, paclobutrazol 9.7, mepiquat-chloride 37, + NIS 0.25 % v/v

**Q.** With `CC(C)(C)[C@@H](O)[C@@H](Cc1ccc(Cl)cc1)n1cncn1` (racemic) [paclobutrazol] as the compound, how does the “ADF, Percent Increase Over the Untreated Check (on a % dry matter basis)” value (basil 'Genovese'; [1]) read?
**A.** −12 % check

**Q.** And the “Calcium, Percent Increase Over the Untreated Check (on a % dry matter basis)” value (basil 'Genovese'; [1])?
**A.** −18 % check

**Q.** And the “Copper, Percent Increase Over the Untreated Check (on a % dry matter basis)” value (basil 'Genovese'; [1])?
**A.** −25 % check

**Q.** What about the “Iron, Percent Increase Over the Untreated Check (on a % dry matter basis)” value (basil 'Genovese'; [1]) of the same compound?
**A.** 4 % check

**Q.** What about the “Magnesium, Percent Increase Over the Untreated Check (on a % dry matter basis)” value (basil 'Genovese'; [1]) of the same compound?
**A.** −9 % check

**Q.** What about the “Manganese, Percent Increase Over the Untreated Check (on a % dry matter basis)” value (basil 'Genovese'; [1]) of the same compound?
**A.** −12 % check

**Q.** And the “NDF, Percent Increase Over the Untreated Check (on a % dry matter basis)” value (basil 'Genovese'; [1])?
**A.** −8 % check

**Q.** What about the “Phosphorous, Percent Increase Over the Untreated Check (on a % dry matter basis)” value (basil 'Genovese'; [1]) of the same compound?
**A.** 0 % check

**Q.** And the “Potassium, Percent Increase Over the Untreated Check (on a % dry matter basis)” value (basil 'Genovese'; [1])?
**A.** −5 % check

**Q.** What about the “Protein, Percent Increase Over the Untreated Check (on a % dry matter basis)” value (basil 'Genovese'; [1]) of the same compound?
**A.** −9 % check

**Q.** And the “Sodium, Percent Increase Over the Untreated Check (on a % dry matter basis)” value (basil 'Genovese'; [1])?
**A.** −17 % check

**Q.** What about the “Soluble protein, Percent Increase Over the Untreated Check (on a % dry matter basis)” value (basil 'Genovese'; [1]) of the same compound?
**A.** 12 % check

**Q.** And the “Zinc, Percent Increase Over the Untreated Check (on a % dry matter basis)” value (basil 'Genovese'; [1])?
**A.** −8 % check

**Q.** And the “ADF, Percent Increase Over the Untreated Check (on a % dry matter basis)” value (basil 'Genovese'; [2])?
**A.** 7 % check

**Q.** What about the “Calcium, Percent Increase Over the Untreated Check (on a % dry matter basis)” value (basil 'Genovese'; [2]) of the same compound?
**A.** −2 % check

**Q.** And the “Copper, Percent Increase Over the Untreated Check (on a % dry matter basis)” value (basil 'Genovese'; [2])?
**A.** 8 % check

**Q.** And the “Iron, Percent Increase Over the Untreated Check (on a % dry matter basis)” value (basil 'Genovese'; [2])?
**A.** 63 % check

**Q.** And the “Magnesium, Percent Increase Over the Untreated Check (on a % dry matter basis)” value (basil 'Genovese'; [2])?
**A.** −8 % check

**Q.** And the “Manganese, Percent Increase Over the Untreated Check (on a % dry matter basis)” value (basil 'Genovese'; [2])?
**A.** 26 % check

**Q.** And the “NDF, Percent Increase Over the Untreated Check (on a % dry matter basis)” value (basil 'Genovese'; [2])?
**A.** 7 % check

**Q.** What about the “Phosphorous, Percent Increase Over the Untreated Check (on a % dry matter basis)” value (basil 'Genovese'; [2]) of the same compound?
**A.** 2 % check

**Q.** What about the “Potassium, Percent Increase Over the Untreated Check (on a % dry matter basis)” value (basil 'Genovese'; [2]) of the same compound?
**A.** −1 % check

**Q.** What about the “Protein, Percent Increase Over the Untreated Check (on a % dry matter basis)” value (basil 'Genovese'; [2]) of the same compound?
**A.** 6 % check

**Q.** What about the “Sodium, Percent Increase Over the Untreated Check (on a % dry matter basis)” value (basil 'Genovese'; [2]) of the same compound?
**A.** −25 % check

**Q.** What about the “Soluble protein, Percent Increase Over the Untreated Check (on a % dry matter basis)” value (basil 'Genovese'; [2]) of the same compound?
**A.** 50 % check

**Q.** And the “Zinc, Percent Increase Over the Untreated Check (on a % dry matter basis)” value (basil 'Genovese'; [2])?
**A.** 28 % check

**Q.** What about the “Alanine, Percent Increase over the Untreated Check (on a % dry matter basis)” value (kale 'Red Russian'; [3]) of the same compound?
**A.** −9 % check

**Q.** And the “Aspartic acid, Percent Increase over the Untreated Check (on a % dry matter basis)” value (kale 'Red Russian'; [3])?
**A.** −9 % check

**Q.** And the “Cysteine, Percent Increase over the Untreated Check (on a % dry matter basis)” value (kale 'Red Russian'; [3])?
**A.** −6 % check

**Q.** What about the “Glutamic acid, Percent Increase over the Untreated Check (on a % dry matter basis)” value (kale 'Red Russian'; [3]) of the same compound?
**A.** −5 % check

**Q.** And the “Glycine, Percent Increase over the Untreated Check (on a % dry matter basis)” value (kale 'Red Russian'; [3])?
**A.** −12 % check

**Q.** What about the “Iso-leucine, Percent Increase over the Untreated Check (on a % dry matter basis)” value (kale 'Red Russian'; [3]) of the same compound?
**A.** −6 % check

**Q.** What about the “Leucine, Percent Increase over the Untreated Check (on a % dry matter basis)” value (kale 'Red Russian'; [3]) of the same compound?
**A.** −7 % check

**Q.** What about the “Lysine, Percent Increase over the Untreated Check (on a % dry matter basis)” value (kale 'Red Russian'; [3]) of the same compound?
**A.** −8 % check

**Q.** What about the “Methionine, Percent Increase over the Untreated Check (on a % dry matter basis)” value (kale 'Red Russian'; [3]) of the same compound?
**A.** −13 % check

**Q.** And the “Proline, Percent Increase over the Untreated Check (on a % dry matter basis)” value (kale 'Red Russian'; [3])?
**A.** −4 % check

**Q.** What about the “Threonine, Percent Increase over the Untreated Check (on a % dry matter basis)” value (kale 'Red Russian'; [3]) of the same compound?
**A.** −9 % check

**Q.** And the “Total Amino acids, Percent Increase over the Untreated Check (on a % dry matter basis)” value (kale 'Red Russian'; [3])?
**A.** −8 % check

**Q.** And the “Total Protein, Percent Increase over the Untreated Check (on a % dry matter basis)” value (kale 'Red Russian'; [3])?
**A.** 0 % check

**Q.** What about the “Valine, Percent Increase over the Untreated Check (on a % dry matter basis)” value (kale 'Red Russian'; [3]) of the same compound?
**A.** −6 % check

**Q.** What about the “ADF, Percent Increase Over the Untreated Check (on a % dry matter basis)” value (kale 'Red Russian'; [4]) of the same compound?
**A.** 11 % check

**Q.** What about the “Calcium, Percent Increase Over the Untreated Check (on a % dry matter basis)” value (kale 'Red Russian'; [4]) of the same compound?
**A.** 11 % check

**Q.** And the “Copper, Percent Increase Over the Untreated Check (on a % dry matter basis)” value (kale 'Red Russian'; [4])?
**A.** 12 % check

**Q.** What about the “Iron, Percent Increase Over the Untreated Check (on a % dry matter basis)” value (kale 'Red Russian'; [4]) of the same compound?
**A.** −3 % check

**Q.** And the “Magnesium, Percent Increase Over the Untreated Check (on a % dry matter basis)” value (kale 'Red Russian'; [4])?
**A.** 8 % check

**Q.** What about the “Manganese, Percent Increase Over the Untreated Check (on a % dry matter basis)” value (kale 'Red Russian'; [4]) of the same compound?
**A.** 10 % check

**Q.** And the “NDF, Percent Increase Over the Untreated Check (on a % dry matter basis)” value (kale 'Red Russian'; [4])?
**A.** −3 % check

**Q.** What about the “Phosphorous, Percent Increase Over the Untreated Check (on a % dry matter basis)” value (kale 'Red Russian'; [4]) of the same compound?
**A.** 6 % check

**Q.** And the “Potassium, Percent Increase Over the Untreated Check (on a % dry matter basis)” value (kale 'Red Russian'; [4])?
**A.** 3 % check

**Q.** And the “Sodium, Percent Increase Over the Untreated Check (on a % dry matter basis)” value (kale 'Red Russian'; [4])?
**A.** −1 % check

**Q.** And the “Zinc, Percent Increase Over the Untreated Check (on a % dry matter basis)” value (kale 'Red Russian'; [4])?
**A.** 11 % check

**Q.** And the “ADF, Percent Increase Over the Untreated Check (on a % dry matter basis)” value (kale 'Red Russian'; [5])?
**A.** −1 % check

**Q.** What about the “Calcium, Percent Increase Over the Untreated Check (on a % dry matter basis)” value (kale 'Red Russian'; [5]) of the same compound?
**A.** 22 % check

**Q.** What about the “Copper, Percent Increase Over the Untreated Check (on a % dry matter basis)” value (kale 'Red Russian'; [5]) of the same compound?
**A.** 28 % check

**Q.** What about the “Iron, Percent Increase Over the Untreated Check (on a % dry matter basis)” value (kale 'Red Russian'; [5]) of the same compound?
**A.** −5 % check

**Q.** And the “Magnesium, Percent Increase Over the Untreated Check (on a % dry matter basis)” value (kale 'Red Russian'; [5])?
**A.** 11 % check

**Q.** What about the “Manganese, Percent Increase Over the Untreated Check (on a % dry matter basis)” value (kale 'Red Russian'; [5]) of the same compound?
**A.** 20 % check

**Q.** And the “NDF, Percent Increase Over the Untreated Check (on a % dry matter basis)” value (kale 'Red Russian'; [5])?
**A.** −8 % check
